From patent publication US20250295656A1, “COMBINATION OF LURBINECTEDIN AND IMMUNE CHECKPOINT INHIBITORS” (priority 2020, published 2025)

Tested on: MCA205 tumours
Test: Established MCA205 tumours in immunocompetent mice
Format: in vivo, immunocompetent C57BL/6 mice
Settings: immunocompetent C57BL/6, 0.18 mg/kg i.v. day 1, 7 and 14
Procedure: Live MCA205 cells were injected subcutaneously (s.c.) into immunocompetent C57BL/6 mice or immunodeficient nu/nu mice as depicted in the scheme in (a) When tumours became palpable, mice were intravenously (i.v.) injected with […] lurbinectedin (on day 1, 7 and 14). Tumour growth was assessed regularly for the following 30 days. Data is depicted as tumour growth curves (b,d) and overall survival plots (c,e). Data were analyzed with TumGrowth.
In order to assess the capacity of lurbinectedin to stimulate anticancer immunity in a monotherapeutic approach and to convert tumour cells into a therapeutic vaccine we exposed murine fibrosarcoma cells to the drug in vitro (in conditions previously established to induce a sufficient amplitude of cell death) and then injected the dying cancer cells into syngeneic immunocompetent mice. […] Next we evaluated the effect of lurbinectedin on established cancers growing on immunocompetent or immunodeficient mice. […]
Six- to eight-week-old female wild-type C57BL/6 and nu/nu mice were obtained from Envigo France (Huntingdon, UK) and were kept in the animal facility at the Gustave Roussy Campus Cancer in a specific pathogen-free and temperature-controlled environment with 12 h day, 12 h night cycles and received food and water ad libitum. […] Animals were monitored and tumour growth documented regularly until end-points were reached. […]

## COc1ccc2[nH]c3c(c2c1)CCN[C@]31CS[C@@H]2c3c(OC(C)=O)c(C)c4c(c3[C@H](COC1=O)N1[C@@H]2[C@H]2c3c(cc(C)c(OC)c3O)C[C@@H]([C@@H]1O)N2C)OCO4 [lurbinectedin]
  overall survival: increased
Vs control animals, p<0.0001
  tumour growth: significantly reduced
